Assay results published in patent publication US8846711B2, “Heterocyclic acrylamides and their use as pharmaceuticals” (Fab Pharma S.A.S., priority 2009, dated 2014).
Converted amounts (≈) assume the structure as drawn. Where two headings read alike, the source gives them in different places.

Key:
[1] = biological target: human albumin (HSA) (Homo sapiens (Human), UniProt P02768); test: HSA binding analysis using a chiral HSA column; format: in vitro ADME; settings: for HSA Binding (%): AB%=[k′/(k′+1)]*100, pH 7.0; for HSA Binding (%) / Conclusion (HSA binding class): chiral HSA column; for k′: capacity factor, k′=(Tr−T0)/T0; for Tr: retention time on chiral HSA column, pH 7.0, 37° C.; for affinity in vitro to human albumin: text summary of Table 7
Excerpt: The test system used in this analysis was an HSA chiral column.
The relationship between the retention time (Tr) and percentage of albumin binding (AB %) depended on the dead time (TO) and the capacity factor (k′): AB%=[k′/(k′+1)]*100
HSA binding was classified as follows:
75%≦AB<90%: Moderate binding

[2] = test system: C. albicans (ATCC 90028); test: MIC determination using susceptibility method (broth microdilution); format: cell-based; settings: Candida albicans
Procedure: (§1) Minimum inhibitory concentrations (MICs) were determined by broth microdilution according to CLSI guidelines (CLSI, M100-20^1, M7-A8^2, M27-A3^3). The compounds were tested in the range from […]. Colonies were taken directly from a second-pass culture plate and prepared to a suspension equivalent to the 0.5 McFarland standard using normal saline. […] The panels were incubated at 35° C. for 16 to 20 hours before reading the MIC endpoints. The compounds of Examples 12, 29, 59, 63 and 66-71 were dissolved in DMSO to make the initial solutions of 5120 μg/ml. These solutions were diluted 1:10 in sterile water to a stock solution of 512 μg/ml. The stock solutions were further diluted into the appropriate broth medium for the sequential dilutions used in the broth microdilution panels. S. pneumoniae was tested in Mueller Hinton (MH) broth with 3% lysed horse blood and C. albicans was tested in RPMI-1640 medium. All other organisms were tested in MH broth.

[3] = test system: E. faecalis (ATCC 29212); test: as above; format: cell-based; settings: Enterococcus faecalis
Procedure: as §1

[4] = test system: E. coli (ATCC 25922); test: as above; format: cell-based; settings: Escherichia coli
Procedure: as §1

[5] = test system: MRSA (IHMA #510059); test: as above; format: cell-based; settings: Staphylococcus aureus, read-out: MIC (μg/ml) MRSA (IHMA #510059)
Procedure: as §1

[6] = test system: MSSA (IHMA #555189); test: as above; format: cell-based; settings: Staphylococcus aureus, read-out: MIC (μg/ml) MSSA (IHMA #555189)
Procedure: as §1

[7] = test system: S. aureus ATCC 29213; test: as above; format: cell-based; settings: Staphylococcus aureus
Procedure: as §1

[8] = test system: S. pneumoniae (ATCC 49619); test: as above; format: cell-based; settings: Streptococcus pneumoniae
Procedure: as §1

[9] = ATCC90028, read-out: MIC (μg/ml) C. albicans (ATCC 90028)
[10] = ATCC29212, read-out: MIC (μg/ml) E. faecalis (ATCC 29212)
[11] = ATCC25922, read-out: MIC (μg/ml) E. coli (ATCC 25922)
[12] = ATCC29213, read-out: MIC (μg/ml) S. aureus ATCC 29213
[13] = ATCC49619, read-out: MIC (μg/ml) S. pneumoniae (ATCC 49619)
[14] = ATCC90028, Broth microdilution, RPMI-1640 medium, read-out: MIC (μg/ml) C. albicans (ATCC 90028)
[15] = ATCC29212, Broth microdilution, MH broth, read-out: MIC (μg/ml) E. faecalis (ATCC 29212)
[16] = ATCC25922, Broth microdilution, MH broth, read-out: MIC (μg/ml) E. coli (ATCC 25922)
[17] = ATCC29213, Broth microdilution, MH broth, read-out: MIC (μg/ml) S. aureus ATCC 29213
[18] = ATCC49619, Broth microdilution, MH broth with 3% lysed horse blood, read-out: MIC (μg/ml) S. pneumoniae (ATCC 49619)

Sequence of human albumin (HSA) (P02768 25-609): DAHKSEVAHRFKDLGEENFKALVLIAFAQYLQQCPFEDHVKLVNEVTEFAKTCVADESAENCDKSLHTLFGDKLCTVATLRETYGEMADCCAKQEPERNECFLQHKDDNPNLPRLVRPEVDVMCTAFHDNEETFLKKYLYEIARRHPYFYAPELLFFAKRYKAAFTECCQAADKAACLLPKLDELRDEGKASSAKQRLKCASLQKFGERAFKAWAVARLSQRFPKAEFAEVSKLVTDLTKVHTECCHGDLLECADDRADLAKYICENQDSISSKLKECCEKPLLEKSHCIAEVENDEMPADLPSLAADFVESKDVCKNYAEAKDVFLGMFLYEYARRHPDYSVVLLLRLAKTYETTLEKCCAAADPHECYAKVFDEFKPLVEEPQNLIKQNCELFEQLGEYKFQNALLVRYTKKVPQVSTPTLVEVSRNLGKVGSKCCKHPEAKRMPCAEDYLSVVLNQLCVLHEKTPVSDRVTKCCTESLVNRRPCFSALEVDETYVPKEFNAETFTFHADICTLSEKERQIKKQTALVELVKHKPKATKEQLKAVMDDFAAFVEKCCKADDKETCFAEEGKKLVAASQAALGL

Row | Compound | HSA Binding (%) [1] [%] | k′ [1] | Conclusion (HSA binding class) [1] | Tr [1] [min] | affinity in vitro to human albumin [1] | MIC [2, 9] [µg/mL] | MIC [3, 10] [µg/mL] | MIC [4, 11] [µg/mL] | MIC [5] [µg/mL] | MIC [6] [µg/mL] | MIC [7, 12] [µg/mL] | MIC [8, 13] [µg/mL] | MIC [2, 14] [µg/mL] | MIC [3, 15] [µg/mL] | MIC [4, 16] [µg/mL] | MIC ([5]; Broth microdilution, MH broth) [µg/mL] | MIC ([6]; Broth microdilution, MH broth) [µg/mL] | MIC [7, 17] [µg/mL] | MIC [8, 18] [µg/mL]
1 | O=C1CCc2cc(/C=C/C(=O)N3CC(OCCc4cccs4)C3)cnc2N1 [Example 29, (E)-6-(3-Oxo-3-(3-(2-(thiophen-2-yl)ethoxy)azetidin-1-yl)prop-1-enyl)-3,4-dihydro-1,8-naphthyridin-2(1H)-one] | 55.7 | 1.259 | Low binding (AB<75%: Low binding) | 1.743 | low affinity | > 128 | > 128 | > 128 | 0.5 (≈ 1.3 µM) | 0.5 (≈ 1.3 µM) | 0.5 (≈ 1.3 µM) | > 128 |  |  |  |  |  |  | 
2 | O=C1CCc2cc(/C=C/C(=O)N3CC(c4cc5ccccc5o4)C3)cnc2N1 [Example 59, (E)-6-(3-(3-(Benzofuran-2-yl)azetidin-1-yl)-3-oxoprop-1-enyl)-3,4-dihydro-1,8-naphthyridin-2(1H)-one] | 82.4 | 4.678 | Moderate | 4.378 | moderate affinity | 128 (≈ 343 µM) | 64 (≈ 171 µM) | 64 (≈ 171 µM) | 0.06 (≈ 0.161 µM) | 0.06 (≈ 0.161 µM) | 0.06 (≈ 0.161 µM) | 32 (≈ 85.7 µM) |  |  |  |  |  |  | 
3 | CCCCOC1CN(C(=O)/C=C/c2cnc3c(c2)CC2(CCN(C)CC2)C(=O)N3)C1 [Example 63, (E)-6-(3-(3-Butoxyazetidin-1-yl)-3-oxoprop-1-enyl)-1′-methyl-1H-spiro[[1,8]naphthyridine-3,4′-piperidin]-2(4H)-one] | 56.3 | 1.288 | Low binding (AB<75%: Low binding) | 1.760 | low affinity | 128 (≈ 310 µM) | 64 (≈ 155 µM) | 64 (≈ 155 µM) | 1 (≈ 2.42 µM) | 1 (≈ 2.42 µM) | 1 (≈ 2.42 µM) | 64 (≈ 155 µM) |  |  |  |  |  |  | 
4 | CN1CCC2(CC1)Cc1cc(/C=C/C(=O)N3CC(OCCc4cccs4)C3)cnc1NC2=O [Example 66, (E)-1′-Methyl-6-(3-oxo-3-(3-(2-(thiophen-2-yl)ethoxy)azetidin-1-yl)prop-1-en-1-yl)-1H-spiro[[1,8]naphthyridine-3,4′-piperidin]-2(4H)-one] |  |  |  |  |  | 64 (≈ 137 µM) | 64 (≈ 137 µM) | 64 (≈ 137 µM) | 0.5 (≈ 1.07 µM) | 0.25 (≈ 0.536 µM) | 0.25 (≈ 0.536 µM) | 64 (≈ 137 µM) |  |  |  |  |  |  | 
5 | Cc1c(C2CN(C(=O)/C=C/c3cnc4c(c3)CCC(=O)N4)C2)oc2ccccc12 [Example 67, (E)-6-(3-(3-(3-Methylbenzofuran-2-yl)azetidin-1-yl)-3-oxoprop-1-enyl)-3,4-dihydro-1,8-naphthyridin-2(1H)-one] | 89.3 | 8.360 | Moderate | 7.229 | moderate affinity | > 128 | > 128 | > 128 | 0.06 (≈ 0.155 µM) | 0.06 (≈ 0.155 µM) | 0.06 (≈ 0.155 µM) | 128 (≈ 330 µM) |  |  |  |  |  |  | 
6 | Cc1c(C2CN(C(=O)/C=C/c3cnc4c(c3)CC3(CCN(C)CC3)C(=O)N4)C2)oc2ccccc12 [Example 68, (E)-1′-Methyl-6-(3-(3-(3-methylbenzofuran-2-yl)azetidin-1-yl)-3-oxoprop-1-enyl)-1H-spiro[[1,8]naphthyridine-3,4′-piperidin]-2(4H)-one] | 91.8 | 11.216 | High binding (AB≧90%: High binding) | 9.414 | high affinity | > 128 | > 128 | > 128 | 0.5 (≈ 1.06 µM) | 0.5 (≈ 1.06 µM) | 0.5 (≈ 1.06 µM) | 128 (≈ 272 µM) |  |  |  |  |  |  | 
7 | CN1CCC2(CC1)Cc1cc(/C=C/C(=O)N3CC(c4cc5ccccc5o4)C3)cnc1NC2=O [Example 69, (E)-6-(3-(3-(Benzofuran-2-yl)azetidin-1-yl)-3-oxoprop-1-en-1-yl)-1′-methyl-1H-spiro[[1,8]naphthyridine-3,4′-piperidin]-2(4H)-one] | 88.5 | 7.730 | Moderate | 6.734 | moderate affinity | > 128 | > 128 | > 128 | 1 (≈ 2.19 µM) | 1 (≈ 2.19 µM) | 1 (≈ 2.19 µM) | 128 (≈ 280 µM) |  |  |  |  |  |  | 
8 | CCCO/N=C(\C)C1CN(C(=O)/C=C/c2cnc3c(c2)CCC(=O)N3)C1 [Example 70, 6-((E)-3-Oxo-3-(3-((E)-1-(propoxyimino)ethyl)azetidin-1-yl)prop-1-enyl)-3,4-dihydro-1,8-naphthyridin-2(1H)-one] | 36.7 | 0.580 | Low binding (AB<75%: Low binding) | 1.219 | low affinity |  |  |  |  |  |  |  | > 128 | > 128 | > 128 | 0.5 (≈ 1.4 µM) | 0.5 (≈ 1.4 µM) | 0.5 (≈ 1.4 µM) | > 128
9 | CCCO/N=C(/C)C1CN(C(=O)/C=C/c2cnc3c(c2)CCC(=O)N3)C1 [Example 71, 6-((E)-3-Oxo-3-(3-((Z)-1-(propoxyimino)ethyl)azetidin-1-yl)prop-1-enyl)-3,4-dihydro-1,8-naphthyridin-2(1H)-one] | 28.8 | 0.404 | Low binding (AB<75%: Low binding) | 1.084 | low affinity |  |  |  |  |  |  |  | > 128 | > 128 | > 128 | 4 (≈ 11.2 µM) | 8 (≈ 22.4 µM) | 4 (≈ 11.2 µM) | 128 (≈ 359 µM)
